Data set [1] deals with HeLa cells (cervical cancer). The data set can be described thus: MTT antiproliferative assay, HeLa. The class given is cell-based, human. The settings on record: 72 h; for inhibition at 10 µM / inhibition at 30 µM: read-out: Growth inhibition (%) ± SEM. The method, then: (§1) The in vitro antiproliferative activities of the synthesized aminodiols 4–38 against a panel of different human cancer cell lines of gynecological origin, including cervical (SiHA and HeLa), breast (MCF7 and MDA-MB-231), and ovary (A2780) cancers were assayed by the MTT method. […] Cisplatin, a clinically applied anticancer agent, was used as a reference compound and the results are summarized in Figure 3 and Table S1 in Supporting Information. […] On the other hand, none of the prepared azole derivatives exerted relevant activity.
(§2) The growth-inhibitory effects of the gibberellic acid-based aminodiol derivatives were determined by a standard MTT (3-(4,5-dimethylthiazol-2-yl)-2,5-diphenyltetrazolium bromide) assay on a panel containing five cell lines, including Hela and Siha (cervical cancers); MDA-MB-231 and MCF-7 (breast cancers); and A2780 ovarian cancer cells. The most promising agents were additionally tested against NIH/3T3 mouse embryo fibroblast cells. All cell lines were purchased from the European Collection of Cell Cultures (Salisbury, UK) except SiHa, which was obtained from the American Tissue Culture Collection (Manassas, VA, USA). The cells were maintained in minimal essential medium supplemented with 10% fetal bovine serum, 1% non-essential amino acids, and 1% penicillin-streptomycin at 37 °C in a humidified atmosphere containing 5% CO2. All media and supplements were obtained from Lonza Group Ltd., (Basel, Switzerland). Cancer cells were seeded into 96-well plates (5000 cells/well), after an overnight incubation the test compound was added in 2 different concentrations (10 µM and 30 µM) and incubated for another 72 h under cell-culturing conditions. Then, 20 μL of 5 mg/mL MTT solution was added to each well and incubated for a further 4 h. The medium was removed, and the precipitated formazan crystals were dissolved in DMSO during 60 min of shaking at 37 °C. As the final step, the absorbance was measured at 545 nm by using a microplate reader (SPECTROStar Nano, BMG Labtech, Offenburg, Germany). Untreated cells were included as controls. […] These agents were additionally tested against NIH/3T3 fibroblasts to obtain results about their cancer selectivity. Two independent experiments were performed with five wells for each condition. Cisplatin (Ebewe GmbH, Unterach, Austria), a clinically used anticancer agent, was used as a positive control. Calculations were performed utilizing the GraphPad Prism 5.01 software (GraphPad Software Inc., San Diego, CA, USA).

Data set [2] has as its system SiHa cells (cervical cancer). The data set can be described thus: MTT antiproliferative assay, SiHa. The class given is cell-based, human. The settings on record: 72 h; for inhibition at 10 µM / inhibition at 30 µM: read-out: Growth inhibition (%) ± SEM. The method, then:
as §1, §2

In data set [3] the test system is MDA-MB-231 cells (breast cancer). The data set can be described thus: MTT antiproliferative assay, MDA-MB-231. The class given is cell-based, human. The settings on record: for Growth inhibition (%) ± SEM / inhibition at 10 µM / inhibition at 30 µM: 72 h; for IC50: MDA-MB-231, 72 h; for inhibition at 10 µM / inhibition at 30 µM: read-out: Growth inhibition (%) ± SEM. The method, then: as §1, §2

The subject of data set [4] is A2780 ovarian cancer cells. The data set can be described thus: MTT antiproliferative assay, A2780. The class given is cell-based, human. The conditions noted are these: for Growth inhibition (%) ± SEM / inhibition at 10 µM / inhibition at 30 µM: 72 h; for IC50: A2780, 72 h; for inhibition at 10 µM / inhibition at 30 µM: read-out: Growth inhibition (%) ± SEM. The method, then: as §1, §2

The subject of data set [5] is NIH/3T3 mouse embryo fibroblast cells. The data set can be described thus: MTT assay on non-cancerous fibroblasts (cancer selectivity). The class given is cell-based. The settings on record: for IC50: NIH/3T3, 72 h; for cancer selectivity (cancer cells vs NIH/3T3 fibroblasts), words: comparison of IC50 on fibroblasts and malignant cell lines. The method, then: as §1, §2

A short description of data set [6]: DPPH free radical scavenging assay. The settings on record: for DPPH scavenging activity: concentration range 3–100 µM.
Experimental: As a consequence, in vitro antioxidant activities of selected N-aliphatic- and N-aryl-substituted aminodiols were determined by 1,1-diphenyl-2-picrylhydrazyl (DPPH) assay.
The antioxidant effects of the aminodiol derivatives were tested on 1,1-diphenyl-2-picrylhydrazyl (DPPH) radicals according to Brand-Williams (1995) [55] and Sánchez-Moreno (2002) [56], with some modifications. […] After a 30 min incubation period at room temperature (25 °C) the absorbances were measured at 517 nm by a microplate reader (SPECTROStar Nano, BMG Labtech, Offenburg, Germany). Trolox (3,4-Dihydro-6-hydroxy-2,5,7,8-tetramethyl-2H-1-benzopyran-2-carboxylic acid) was used as a positive control. All measurements were performed in duplicate with 5 parallels.
Setting [7] is: Homo sapiens, MDA-MB-231, 10 μM.
[8] abbreviates: Homo sapiens, MDA-MB-231, 30 μM.

For the compound `N.N.[Cl][Pt][Cl]` [Cisplatin, reference compound], the “Growth inhibition (%) ± SEM” value was 42.61 ± 2.33% in data set [1] (10 μM); 99.93 ± 0.26% in data set [1] (30 μM); 88.64 ± 0.50% in data set [2] (10 μM); 90.18 ± 1.78% in data set [2] (30 μM); 67.51 ± 1.01% in data set [3] (MDA-MB-231, 10 μM); 87.75 ± 1.10% in data set [3] (MDA-MB-231, 30 μM). In addition, the “Growth inhibition (%) ± SEM” value in data set [4] (A2780, 10 μM) is given as 83.57 ± 1.21%; in data set [4] (A2780, 30 μM), 95.02 ± 0.28%; in data set [5] (NIH/3T3, 10 μM, 72 h) it was 73.88 ± 1.63%; in data set [5] (NIH/3T3, 30 μM, 72 h) it was 97.10 ± 0.15%. The IC50 stood at 12.4 µM in data set [1]; 7.84 µM in data set [2]; 3.74 µM in data set [3]; 1.3 µM in data set [4]; 5.49 µM in data set [5].
With `CCOC(=O)[C@H]1c2c(C)cccc2[C@H]2CC[C@]3(O)C[C@@]21C[C@]3(O)CN[C@@H](C)c1ccc2ccccc2c1` [Compound 12], the “Growth inhibition (%) ± SEM” value in data set [1] (10 μM) was determined as 97.69 ± 0.28%; in data set [1] (30 μM), 97.62 ± 0.55%; in data set [2] (10 μM), 97.41 ± 0.15%; in data set [2] (30 μM) it was 97.06 ± 0.20%; in data set [3] (MDA-MB-231, 10 μM) it was 95.00 ± 0.69%; in data set [3] (MDA-MB-231, 30 μM), 93.72 ± 0.88%. Besides, the “Growth inhibition (%) ± SEM” value is recorded as 96.29 ± 0.59% in data set [4] (A2780, 10 μM); 96.28 ± 0.82% in data set [4] (A2780, 30 μM); 90.43 ± 0.15% in data set [5] (NIH/3T3, 10 μM, 72 h); 91.03 ± 0.05% in data set [5] (NIH/3T3, 30 μM, 72 h). In addition, the half-maximal inhibitory concentration (IC50) stood at 4.14 ± 0.38 µM in data set [1]; 4.17 ± 0.32 µM in data set [2]; 7.19 ± 1.48 µM in data set [3]; 5.45 ± 0.31 µM in data set [4]; 4.57 ± 0.23 µM in data set [5]. In data set [5], the “cancer selectivity (cancer cells vs NIH/3T3 fibroblasts), words” value was “inhibited the growth of cancer cells and fibroblasts in the same concentration range”. The “DPPH scavenging activity” value in data set [6] is “None of the six molecules elicited considerable activity”.
`CCOC(=O)[C@H]1c2c(C)cccc2C2CC[C@]3(O)C[C@@]21C[C@]3(O)CN[C@H](C)c1cccc2ccccc12` (stereo partly drawn) [Compound 14, Ethyl (7S,8S,9aR,10R)-7,8-dihydroxy-1-methyl-8-((((R)-1-(naphthalen-1-yl)ethyl)amino)methyl)-4b,6,7,8,9,10-hexahydro-5H-7,9a-methanobenzo[a]azulene-10-carboxylate]: the inhibition at 10 µM amounted to 98.08 ± 0.19% in data set [1] (Homo sapiens, 10 μM); 96.3 ± 2.13% in data set [2] (Homo sapiens, 10 μM); 96.57 ± 0.37% in data set [3] (setting [7]); 96.53 ± 0.73% in data set [4] (Homo sapiens, A2780, 10 μM); 88.6 ± 0.97% in data set [5] (Mus musculus, NIH3T3, NIH/3T3, 10 μM, 72 h, read-out: Growth inhibition (%) ± SEM). Besides, the inhibition at 30 µM stood at 97.4 ± 0.34% in data set [1] (Homo sapiens, 30 μM); 97.84 ± 0.42% in data set [2] (Homo sapiens, 30 μM); 96.77 ± 0.16% in data set [3] (setting [8]); 95.9 ± 1.06% in data set [4] (Homo sapiens, A2780, 30 μM); 88.7 ± 0.98% in data set [5] (Mus musculus, NIH3T3, NIH/3T3, 30 μM, 72 h, read-out: Growth inhibition (%) ± SEM). Moreover, the IC50 in data set [1] (Homo sapiens) turned out to be 4.66 ± 0.21 µM; in data set [2] (Homo sapiens) it was 5.25 ± 0.86 µM; in data set [3] (Homo sapiens) it was 8.04 ± 0.61 µM; in data set [4] (Homo sapiens) it was 5.15 ± 0.28 µM; in data set [5] (Mus musculus, NIH3T3) it was 5.02 ± 0.26 µM. Also, the “cancer selectivity (cancer cells vs NIH/3T3 fibroblasts), words” value in data set [5] was “inhibited the growth of cancer cells and fibroblasts in the same concentration range”. Also, in data set [6], the “DPPH scavenging activity” value is “None of the six molecules elicited considerable activity”.
Turning to `CCOC(=O)[C@H]1c2c(C)cccc2[C@H]2CC[C@]3(O)C[C@@]21C[C@]3(O)CN(C)Cc1ccccc1` [Compound 16, Ethyl (4bS,7S,8S,9aR,10R)-8-((benzyl(methyl)amino)methyl)-7,8-dihydroxy-1-methyl-4b,6,7,8,9,10-hexahydro-5H-7,9a-methanobenzo[a]azulene-10-carboxylate], the melting point lay within 94 to 95 °C. Besides, the inhibition at 10 µM in data set [1] (Homo sapiens, 10 μM) was less than 20%. For the same compound, the inhibition at 30 µM in data set [1] (Homo sapiens, 30 μM) came to 36 ± 2.89%. Moreover, in data set [2] (Homo sapiens, 10 μM), the inhibition at 10 µM was less than 20%. Also, the inhibition at 30 µM in data set [2] (Homo sapiens, 30 μM) stood at 23 ± 0.39%. In addition, the inhibition at 10 µM in data set [3] (setting [7]) was less than 20%. Besides, the inhibition at 30 µM in data set [3] (setting [8]) was 25 ± 0.99%. Besides, the inhibition at 10 µM in data set [4] (Homo sapiens, A2780, 10 μM) is less than 20%. Besides, in data set [4] (Homo sapiens, A2780, 30 μM), the inhibition at 30 µM amounted to 21.6 ± 0.85%. Moreover, the “DPPH scavenging activity” value in data set [6] was “None of the six molecules elicited considerable activity”.
On to `CCOC(=O)[C@H]1c2c(C)cccc2[C@H]2CC[C@]3(O)C[C@@]21C[C@]3(O)CN` [Compound 25, Ethyl (4bS,7S,8S,9aR,10R)-8-(aminomethyl)-7,8-dihydroxy-1-methyl-4b,6,7,8,9,10-hexahydro-5H-7,9a-methanobenzo[a]azulene-10-carboxylate], for which the melting point lay in the range of 92 to 94 °C. In addition, the inhibition at 10 µM in data set [1] (Homo sapiens, 10 μM) was less than 20%. In addition, in data set [1] (Homo sapiens, 30 μM), the inhibition at 30 µM is less than 20%. The inhibition at 10 µM in data set [2] (Homo sapiens, 10 μM) is less than 20%. Besides, the inhibition at 30 µM in data set [2] (Homo sapiens, 30 μM) was less than 20%. In addition, the inhibition at 10 µM in data set [3] (setting [7]) was less than 20%. Moreover, the inhibition at 30 µM in data set [3] (setting [8]) is less than 20%. The inhibition at 10 µM in data set [4] (Homo sapiens, A2780, 10 μM) was less than 20%. The inhibition at 30 µM in data set [4] (Homo sapiens, A2780, 30 μM) was less than 20%. In addition, the “DPPH scavenging activity” value in data set [6] was “None of the six molecules elicited considerable activity”.
Take `CCOC(=O)[C@H]1c2c(C)cccc2[C@H]2CC[C@]3(O)C[C@@]21C[C@]3(O)Cn1nnc2ccccc21` [Compound 30, Ethyl (4bS,7S,8S,9aR,10R)-8-((1H-benzo[d][1,2,3]triazol-1-yl)methyl)-7,8-dihydroxy-1-methyl-4b,6,7,8,9,10-hexahydro-5H-7,9a-methanobenzo[a]azulene-10-carboxylate]: the inhibition at 10 µM in data set [1] (Homo sapiens, 10 μM) was less than 20%; in data set [2] (Homo sapiens, 10 μM) it was less than 20%; in data set [3] (setting [7]) it was less than 20%; in data set [4] (Homo sapiens, A2780, 10 μM), less than 20%. Besides, the inhibition at 30 µM in data set [1] (Homo sapiens, 30 μM) was less than 20%; in data set [2] (Homo sapiens, 30 μM) it was 29.5 ± 2%; in data set [3] (setting [8]) it was less than 20%; in data set [4] (Homo sapiens, A2780, 30 μM) it was 26.8 ± 3.79%. Also, in data set [6], the “DPPH scavenging activity” value is on record as “None of the six molecules elicited considerable activity”.
`CCOC(=O)[C@@H]1c2c(C)cccc2C2CC[C@]3(O)C[C@@]21C[C@]3(O)CNCc1cccc2ccccc12` (stereo partly drawn) [Compound 38, Ethyl (7S,8S,9aR,10S)-7,8-dihydroxy-1-methyl-8-(((naphthalen-1-ylmethyl)amino)methyl)-4b,6,7,8,9,10-hexahydro-5H-7,9a-methanobenzo[a]azulene-10-carboxylate] came in with a melting point of 61 to 65 °C. Moreover, the inhibition at 10 µM in data set [1] (Homo sapiens, 10 μM) came to 26.9 ± 0.53%. Besides, the inhibition at 30 µM in data set [1] (Homo sapiens, 30 μM) was 96.5 ± 1.72%. In addition, the inhibition at 10 µM in data set [2] (Homo sapiens, 10 μM) turned out to be 27.9 ± 0.93%. Besides, in data set [2] (Homo sapiens, 30 μM), the inhibition at 30 µM came out at 97.63 ± 0.8%. Further, the inhibition at 10 µM in data set [3] (setting [7]) was less than 20%. Also, the inhibition at 30 µM in data set [3] (setting [8]) was 96.17 ± 0.76%. Besides, the inhibition at 10 µM in data set [4] (Homo sapiens, A2780, 10 μM) stood at 28.6 ± 2.66%. Besides, in data set [4] (Homo sapiens, A2780, 30 μM), the inhibition at 30 µM was 95.23 ± 0.66%.
In data set [6] (0.1 mM DPPH, 30 min, 25 °C), `Cc1c(C)c2c(c(C)c1O)CCC(C)(C(=O)O)O2` (stereo not shown) [Trolox, 3,4-Dihydro-6-hydroxy-2,5,7,8-tetramethyl-2H-1-benzopyran-2-carboxylic acid, reference compound] came in with a half-inhibitory concentration (IC50) of 20.2 µM.

(Values after paper PMC9499365, “Stereoselective Synthesis and Application of Gibberellic Acid-Derived Aminodiols” (International Journal of Molecular Sciences, 2022).)
